Patent US20190274952A1, “TOPICAL USE OF AN ANTIMICROBIAL FORMULATION” (priority 2013, published 2019)
Read-outs that look alike come from different tables or passages of the source.

Columns and labels:
[1] = tested on: Staphylococcus aureus (ATCC 6538); assay: Minimal concentration for total antimicrobial activity, AOAC method 955.15 (Phenol Coefficient Method); format: cell-based; conditions: agent incorporated into formulation F, contact time 10 minutes
Method: The minimum concentration at which a total antimicrobial activity could be observed is determined for selected phenolic compounds of natural origin and selected essential oils using the AOAC method 955.15 (“Phenol Coefficient Method”) with minor modifications. Different concentrations of essential oils and phenolic compounds of natural origin are incorporated into formulation F (see table hereinbelow) and inoculated with a 0.05% bacterial suspension of Staphylococcus aureus (ATCC 6538; concentration of about 8 logs). After a contact time of 10 minutes, 0.1 ml of the inoculated solution is transferred to a broth culture with neutralizing (Difco 268110) and incubated over a period of 72 hours at 37° C. The presence of turbidity in the broth culture is indicative of the survival of the microorganism

[2] = cited from earlier work

Compound | Minimal Concentration [1] | LD50 Oral-rat ([2]; ingredients of Formulation 1) | further results
Cc1ccc(C(C)C)cc1O [Carvacrol] | 0.07 v/v % | – | –
CCCCCCCCCCCCCCCC[N+](C)(C)CC(=O)[O-] [Cetyl Betaine] | – | 1620 mg/kg | –
COCC(C)O (centres unmarked) [Glycol Ether PM] | – | 5 210 mg/kg | –
C=CCc1ccc(O)c(OC)c1 [Eugenol] | 0.4 v/v % | – | –
CC(C)=CCCC(C)=CC=O [Citral] | >1% v/v % | – | –
C=O [Formaldehyde] | – | – | LD50 ([2]; rat, in vivo, po): of 100 mg/Kg; LD50 Oral-rat ([2]; rat, in vivo, po): 100 mg/kg; Toxicity ([2]; rat, in vivo): Toxic
Sodium Laureth Sulfate | – | >5000 mg/kg | –
Cc1ccc(C(C)C)c(O)c1 [Thymol] | 0.07 v/v % | – | –
OCCCO [1,3-Propanediol] | – | >15 000 mg/kg | –
